Assay results: the supplement of paper PMC10307832

Legend:
Test in all cases: relative viability (nuclei count vs DMSO), 5 days (fraction); higher = more cells survive
Erlotinib + Luminespib = compound: C#Cc1cccc(Nc2ncnc3cc(OCCOC)c(OCCOC)cc23)c1 [Erlotinib] + CCNC(=O)c1noc(-c2cc(C(C)C)c(O)cc2O)c1-c1ccc(CN2CCOCC2)cc1 [Luminespib] (partner 0.01 µM)
Outline: (§1)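 Each reported value is a median over duplicate plates. It expresses relative viability: treated-well nuclei count divided by vehicle-well nuclei count. Lung cancer cell lines in 1536-well plates were dosed by pin tool a day after seeding, alone with one drug or with a fixed anchor-drug dose plus five library-drug doses (not always all listed) in √10 steps, and nuclei were counted after 5 days.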

Erlotinib + Foretinib = compound: C#Cc1cccc(Nc2ncnc3cc(OCCOC)c(OCCOC)cc23)c1 [Erlotinib] + COc1cc2c(Oc3ccc(NC(=O)C4(C(=O)Nc5ccc(F)cc5)CC4)cc3F)ccnc2cc1OCCCN1CCOCC1 [Foretinib] (partner 0.25 µM)
Outline: as §1

Erlotinib + Alpelisib = compound: C#Cc1cccc(Nc2ncnc3cc(OCCOC)c(OCCOC)cc23)c1 [Erlotinib] + Cc1nc(NC(=O)N2CCC[C@H]2C(N)=O)sc1-c1ccnc(C(C)(C)C(F)(F)F)c1 [Alpelisib] (partner 2 µM)
Outline: as §1

AT9283 + Bortezomib = compound: O=C(Nc1c[nH]nc1-c1nc2ccc(CN3CCOCC3)cc2[nH]1)NC1CC1 [AT9283] + CC(C)C[C@H](NC(=O)[C@H](Cc1ccccc1)NC(=O)c1cnccn1)B(O)O [Bortezomib] (partner 0.002 µM)
Outline: as §1

AT9283 + Linsitinib = compound: O=C(Nc1c[nH]nc1-c1nc2ccc(CN3CCOCC3)cc2[nH]1)NC1CC1 [AT9283] + C[C@]1(O)C[C@@H](c2nc(-c3ccc4ccc(-c5ccccc5)nc4c3)c3c(N)nccn32)C1 [Linsitinib] (partner 1 µM)
Outline: as §1

Row | Cell Line | relative viability (Erlotinib + Luminespib; first compound 0.02 µM) | relative viability (Erlotinib + Luminespib; first compound 0.2 µM) | relative viability (Erlotinib + Luminespib; first compound 0.6325 µM) | relative viability (Erlotinib + Luminespib; first compound 2 µM) | relative viability (Erlotinib + Foretinib; first compound 0.02 µM) | relative viability (Erlotinib + Foretinib; first compound 0.6325 µM) | relative viability (Erlotinib + Foretinib; first compound 2 µM) | relative viability (Erlotinib + Alpelisib; first compound 0.02 µM) | relative viability (Erlotinib + Alpelisib; first compound 0.2 µM) | relative viability (Erlotinib + Alpelisib; first compound 0.6325 µM) | relative viability (Erlotinib + Alpelisib; first compound 2 µM) | relative viability (AT9283 + Bortezomib; first compound 0.003 µM) | relative viability (AT9283 + Bortezomib; first compound 0.03 µM) | relative viability (AT9283 + Bortezomib; first compound 0.09487 µM) | relative viability (AT9283 + Bortezomib; first compound 0.3 µM) | relative viability (AT9283 + Linsitinib; first compound 0.003 µM) | relative viability (AT9283 + Linsitinib; first compound 0.03 µM) | relative viability (AT9283 + Linsitinib; first compound 0.09487 µM) | relative viability (AT9283 + Linsitinib; first compound 0.3 µM) | relative viability (Erlotinib + Foretinib; first compound 0.2 µM)
1 | EKVX | 0.833 | 0.615 | 0.444 | 0.207 | 0.519 | 0.267 | 0.267 | 0.835 | 0.403 | 0.315 | 0.116 | 0.996 | 0.652 | 0.636 | 0.351 | 0.966 | 0.79 | 0.434 | 0.204 | –
2 | NCI-H2087 | 0.253 | 0.15 | 0.224 | 0.152 | 1.12 | 1.12 | 0.964 | 1.3 | – | 1.09 | 1.04 | 0.753 | 0.626 | 0.447 | 0.23 | 1.08 | 0.542 | 0.339 | 0.245 | 1.18
3 | HCC-827 | 0.238 | 0.218 | 0.211 | 0.182 | 0.263 | 0.154 | 0.135 | 0.3 | 0.171 | 0.172 | 0.148 | 1.03 | 0.678 | 0.747 | 0.568 | 0.995 | 0.843 | 0.463 | 0.371 | 0.158
4 | A-427 | 1.18 | 0.932 | 0.857 | 0.76 | 1.17 | 1.15 | 1.02 | 1 | 1.04 | 1.12 | 1.05 | 0.977 | 0.427 | 0.216 | 0.188 | 0.834 | 1.03 | 0.276 | 0.205 | 1.01
5 | NCI-H460 | 0.03 | 0.0268 | 0.033 | 0.0356 | 0.973 | – | 0.968 | 0.585 | 0.415 | 0.492 | 0.399 | 0.922 | 0.905 | 0.257 | 0.032 | 0.761 | 0.0766 | 0.0186 | 0.0256 | 1.02
6 | NCI-H1734 | 0.202 | 0.212 | 0.194 | 0.197 | 0.789 | 0.921 | 0.768 | 0.704 | 0.61 | 0.84 | 0.602 | 0.904 | 0.349 | 0.296 | 0.223 | 0.85 | 0.583 | 0.288 | 0.294 | –
7 | NCI-H2009 | 1.04 | 1.03 | 1.09 | 0.944 | 1.28 | 1.36 | 1.23 | 1.24 | 1.16 | 1.17 | 1.13 | 1.01 | 0.639 | 0.363 | 0.233 | 1.21 | 0.704 | 0.315 | 0.323 | 1.24
8 | NCI-H1993 | 0.812 | 0.611 | 0.566 | 0.508 | 0.772 | 0.578 | 0.716 | 0.73 | 0.644 | 0.647 | 0.739 | 1.31 | 0.997 | 0.576 | 0.504 | 0.788 | 0.686 | 0.61 | 0.588 | 0.736
